Results taken from patent US6887468B1 (Board of Regents, The University of Texas System, priority 1999, dated 2005).
“Also recorded” adds a separate entry of the source.

Experiments:
VEGFR2 (KDR/Fc) = assay: Co-precipitation assay, VEGF with VEGFR2/Fc in solution; format: binding; conditions: F(ab′)2
Description: 200 ng of soluble forms of VEGFR1 (Flt-1/Fc) or VEGFR2 (KDR/Fc, R&D Systems, Minneapolis, Minn.) were added for a total volume of 50 μl and incubated for 2 hrs. The receptor/Fc constructs were precipitated using Protein A-sepbarose beads and the resulting precipitate was washed 4 times with binding buffer.
Reducing sample buffer was added to the pellet and supernatant of each reaction and both were analyzed by 12% SDS-PAGE and transferred to PVDF membranes. […] The soluble receptor/Fc constructs were also detected by using peroxidase-conjugated goat anti-human Fc (Kirkegaard & Perry Laboratories, Inc.)
The receptor/Fc constructs were precipitated by incubation with Protein A sepharose beads. The precipitate was washed and resuspended in reducing sample buffer and separated by 12% SDS-PAGE and transferred to PVDF.

[1] = Blood clearance of radioiodinated 2C3-GUS after intravenous injection; format: in vivo, mice; conditions: 125I-labelled
Excerpt: 2C3-GUS was radioiodinated with ^125I to a specific activity of 5×10^6 cpm/μg.

[2] = test system: human NCI-H358 NSCLC tumors; assay: Localization of 2C3-GUS after i.v. injection into tumor-bearing SCID mice; format: in vivo
VEGFR1 (FLT-1), Flt-1/Fc = assay: ELISA: VEGF binding to VEGFR1-coated wells in presence of antibody; conditions: summary table
Description: (§1) FIG. 2. […] The plate was then incubated with rabbit anti-VEGF (A-20, Santa Cruz Biotechnology, Inc.) at 1 μg/ml and developed using a peroxidase conjugated goat anti-rabbit antibody. Assays were performed in triplicate. Mean percent binding in the absence of antibody is shown, together with the standard deviation.
(§2) The assay was also performed by coating wells of a microtiter plate with either control or test IgG.

HT1080 fibrosarcoma = assay: Treatment of established HT1080 fibrosarcoma xenografts; format: in vivo, nu/nu mice; conditions: 100 μg every two days
Description: (§3) FIG. 5A and FIG. 5B. […] Treatments (T) were 100 μg of the IgG given i.p., except for the initial treatment that consisted of 500 μg of the IgG given i.v. Mean tumor volume along with the SEM is shown. At the end of the study (day 116), the mice were sacrificed and the tumors dissected out and weighed. […] The mice were treated every other day as indicated (T). […] Mean tumor volume along with the SE is shown.
(§4) Male nu/nu mice bearing subcutaneous NCI-H358 tumors or HT1080 fibrosarcoma 200-400 mm^3 in size were injected i.p. with test or control antibodies. The NCI-H358 bearing mice were treated with 100 μg of antibodies per injection three times a week during the first week and twice a week during the second and third week. The mice were then switched to 50 μg per injection every five days. The HT1080 bearing mice were treated with 100 μg of the indicated antibody or saline every other day throughout the duration of the study. In both studies, mice were sacrificed when their tumors reached 2500 mm^3 in size or earlier if tumors began to ulcerate.

[3] = test system: NCI-H358 NSCLC and HT29 colon adenocarcinoma xenografts and normal organs; assay: In vivo localization in mice bearing human tumor xenografts (immunohistochemistry 24 h after i.v. injection); set-up: species or system mouse
Description: Tumors were grown subcutaneously in immunocompromised mice (NCI-H358 NSCLC in nu/nu mice and HT29 colon adenocarcinoma in SCID mice) until the tumor volume was approximately 1 cm^3. 100 μg of unlabeled antibody for studies using SCID mice, or 100 μg of biotinylated antibody for studies using nude mice, was injected intravenously via a tail vein. Twenty four hours later, the mice were anesthetized, perfused with PBS, and tumor and organs including heart, lungs, liver, kidneys, intestines and spleen were collected and snap frozen in liquid nitrogen.
The tumor and organs from each mouse were sectioned on a cryostat and stained for antibody immunohistochemically as above, with the exception that sections from the nude mice were developed using peroxidase labeled streptavidin-biotin complex (Dako, Carpinteria, Calif.) and the sections from the SCID mice were developed using two peroxidase-conjugated secondary antibodies, a goat anti-mouse IgG+IgM followed by a rabbit anti-goat IgG.
100 μg of GV39M and 3E7 or isotype-matched control IgG were injected into SCID mice bearing HT29 human colonic adenocarcinomas. Twenty-four hours later, the mice were sacrificed, exsanguinated and the tumors and tissues were removed.

KDR = assay: 125I-VEGF binding studies on KDR expressing endothelial cells (ABAE cells); set-up: species or system bovine
[4] = biological target: T1, VEGF alone or VEGF associated with sFlk-1 (VEGF:Flk-1) (Homo sapiens, UniProt P15692); assay: Indirect and capture ELISA for reactivity with VEGF alone or VEGF associated with sFlk-1; format: binding; conditions: VEGF alone or VEGF:Flk-1
T1 sequence (P15692 27-191 isoform P15692-4): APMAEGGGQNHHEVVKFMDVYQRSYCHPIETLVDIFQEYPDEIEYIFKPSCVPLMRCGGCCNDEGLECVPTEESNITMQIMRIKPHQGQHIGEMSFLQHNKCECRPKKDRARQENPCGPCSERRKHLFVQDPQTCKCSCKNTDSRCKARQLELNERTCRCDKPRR
Description: The Flk-1/SEAP protein was produced and purified as described by Tessler etal. (1994). Basically, the extracellular domain of Flk-1 (sFlk-1) was produced in Spodoptera frugiperda (Sf9) cells and purified by immunoaffinity techniques utilizing a monoclonal anti-Flk-1 antibody (1A8). sFlk-1 was then biotinylated and bound on avidin-coated plates.
The reactivity was determined as described above for the initial screening.
A capture ELISA was also developed. In the capture ELISA, microtiter plates were coated overnight at 4° C. with 100 ng of the indicated antibody. […] Streptavidin conjugated to peroxidase (Kirkegaard & Perry Laboratories, Inc.), diluted 1:2000, was used as a second layer and developed.

NCI-H358 NSCLC tumors = assay: Treatment of established NCI-H358 NSCLC tumor xenografts; format: in vivo, nu/nu mice
Description: FIG. 4. […] Mean tumor volume along with the SEM over 116 days is shown.
as §3, §4
Doses were 50-100 μg every 3-5 days. […] In addition to measuring mean tumor volume (FIG. 4), photographs of the mice from each treatment group were also taken to show the differences in tumor size and appearance at the end of the study.

A673 rhabdomyosarcoma = assay: In vivo tumor growth inhibition, newly-implanted A673 rhabdomyosarcoma; set-up: species or system nu/nu mice
Description: (§5) FIG. 3A and FIG. 3B. […] FIG. 3A: 1×10^7 NCI-H358 NSCLC cells were injected subcutaneously into nu/nu mice on day 0. FIG. 3B: 5×10^6 A673 rhabdomyosarcoma cells were injected subcutaneously into nu/nu mice on day 0. Mice were injected i.p. with the indicated IgG on day 1 and 2 times/week thereafter. […] Tumors were measured 2-3 times per week. Mean and standard error is shown for the duration of the study in FIG. 3A, while data for the last day of the study (day 26) is shown in FIG. 3B.
(§6) Nu/nu mice were injected subcutaneously with either 1×10^7 NCI-H358 NSCLC cells or 5×10^6 A673 rhabdomyosarcoma cells on day 0. […] The tumors were then measured twice per wk for a period of approximately six wk for the NCI-H358 bearing mice and four wk for the A673 bearing mice. Tumor volume was calculated according to the formula: volume=L×W×H, where L=length, W=width, H=height.

[5] = biological target: T2, denatured VEGF121 and VEGF165 (Homo sapiens, UniProt P15692); assay: Western blot analysis of anti-VEGF antibodies; format: binding; conditions: reducing and non-reducing conditions
T2 sequence (P15692 27-191 isoform P15692-4): T1 sequence (P15692 27-191 isoform P15692-4)
Description: The nitrocellulose membrane was blocked using Sea-Block PP82-41 (East Coast Biologics, Berwick, Me.), and probed with primary antibodies using a mini-blotter apparatus (Immunetics, Cambridge, Mass.). The membranes were developed after incubation with the appropriate peroxidase-conjugated secondary antibody by ECL enhanced chemiluminescence.
Western blot analyses of anti-VEGF antibodies were conducted by separating VEGF165 in the presence of 5% FCS using SDS-PAGE on a 12% gel and analyzing by a standard western blotting protocol using ECL detection. The primary antibodies were incubated with the nitrocellulose membrane using a multi-lane mini-blotter apparatus.

VEGFR2 = assay: VEGF-induced phosphorylation of VEGFR2 in PAE/KDR cells (immunoprecipitation, western blot); format: cell-based, porcine aortic endothelial cells transfected with VEGFR2; conditions: antibody 100 nM
Description: PAE/KDR, PAE/FLT, and bEND.3 cells were grown to 80-90% confluency in 100 mm tissue dishes in media containing 5% serum. The cells were then serum starved for 24 hours in media containing 0.1% serum. After pretreatment with 100 […] in PBS for 30 min, the cells were incubated with 5 nM (200 ng/ml) VEGF165, 5 nM (100 ng/ml) bFGF (R&D Systems, Minneapolis, Minn.), or A673 tumor conditioned media in the presence or absence of control or test antibodies for additional 15 min.
The cells were then washed with ice-cold PBS containing 10 mM EDTA, 2 mM sodium fluoride, and 2 mM sodium orthovanadate and lysed in lysis buffer (50 mM Tris, 150 mM NaCl, 1% Nonidet P40, 0.25% sodium deoxycholate, 0.1% CHAPS, 5 mM EDTA, 1.5 mM MgCl2, 2 mM sodium fluoride, 2 mM sodium orthovanadate, 10% glycerol and protease inhibitors (Complete Protease Inhibitor Cocktail tablets, Boehringer Mannheim)). The lysates were clarified by centrifugation and resulting supematant used for immunoprecipitation.
The reactions using the chicken anti-FLT-1 antibody were subsequently incubated with a bridging goat anti-chicken antibody (Kirkegaard and Perry Laboratories, Inc.) for 1 h at 4° C. […]

mouse VEGF = biological target: T3, mouse VEGF (Mus musculus, UniProt Q00731); assay: Indirect ELISA with mouse VEGF; format: binding
T3 sequence (Q00731 27-190 isoform Q00731-2): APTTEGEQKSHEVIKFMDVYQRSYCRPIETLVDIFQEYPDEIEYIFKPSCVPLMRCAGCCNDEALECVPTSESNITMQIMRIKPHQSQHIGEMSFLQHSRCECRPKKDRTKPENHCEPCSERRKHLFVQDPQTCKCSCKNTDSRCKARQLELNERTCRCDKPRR

[6] = test system: VEGFR2 (KDR/Flk-1), sFlk-1-biotin; assay: ELISA: VEGF binding to VEGFR2-coated wells in presence of antibody; set-up: species or system mouse
Description: as §1, §2

[7] = test system: VEGF-mediated growth of ABAE cells; assay: Endothelial cell growth assay (MTS), VEGF-mediated growth of ABAE cells; format: cell-based, bovine; conditions: summary table
Description: ABAE cells were grown in the presence of the various indicated antibodies and 0.5 nM VEGF. Growth after 4 days was determined colorimetrically by the enzymatic conversion of MTS (Owen's reagent) to a yellow formazan. […] Background was determined by growing cells without VEGF or antibody and was subtracted from the control and sample wells.
Adult bovine aortic endothelial (ABAE) cells were plated into 96-well tissue culture plates at 1500 cells/well and grown in the presence of 0.5 nM human VEGF with the addition of the various sample and control antibodies. Control wells received media with or without VEGF.
After 4 days of incubation, the cells were quantified by an MTS (3-(4,5-dimethylthiazol-2-yl)-5-(3-carboxylmethoxyphenyl)-2-(4-sulfophenyl)-2H-tetrazolium, inner salt) conversion assay, where MTS conversion to a formazan is proportional to cell number and can be followed by absorbance at 490 nm (Cell Titer 96 AQueous One Solution Cell Proliferation Assay, Promega, Madison, Wis.). The assay was performed according to the manufacturer's instructions.
Cell growth was estimated by subtracting the MTS conversion in cultures to which VEGF was not added. Results were expressed as a percentage of the MTS conversion in control cultures to which only VEGF was added (Buttke et al., 1993).

NCI-H358 NSCLC = assay: In vivo tumor growth inhibition, newly-implanted NCI-H358 NSCLC; set-up: species or system nu/nu mice
Description: as §5, §6

[8] = test system: progressive disease in cancer patients; conditions: clinical trials; cited from earlier work
[9] = dose-related; cited from earlier work
[10] = 100 μg i.p. 2 times per wk from day 1, controls approximately 1000 mm^3

## 2C3 F(ab′)2: F(ab′)2 fragment of 2C3
VEGFR2 (KDR/Fc)
  Blocking of VEGF binding to VEGFR2/Fc in solution: blocked the binding of VEGF to VEGFR2/Fc

## 2C3-GUS
[1]
  t½ α: about 6 hours
  t½ β: about 25 hours
[2]; immunohistochemistry on frozen tumor sections
  Localization after i.v. injection: specifically localized to tumor vasculature and surrounding tumor stroma
[2]; mouse, in vivo
  Staining of normal tissues: Normal tissues were unstained

## 2C3: anti-VEGF monoclonal IgG2a,k from hybridoma ATCC PTA 1595; blocks VEGF binding to VEGFR2 but not VEGFR1
VEGFR1 (FLT-1), Flt-1/Fc
  Blocks VEGF from binding to VEGFR1: No
HT1080 fibrosarcoma
  Effect on growth of established HT1080 tumors: arrested the growth of the tumors
[3]; 24 hours after i.v. antibody, 3E7 and GV39M bound tumor vascular endothelium, 2C3 tumor stroma
  Immunohistochemical Reactivity, Tumor: 3+
[3]; biotinylated antibody, i.v., nu/nu mice
  In vivo localization in H358 human NSCLC tumor: intense staining of connective tissue surrounding the vasculature
[3]; mouse, in vivo
  In vivo localization in HT29 human tumor model: localized strongly to the connective tissue
  In vivo normal mouse tissue localization: None
KDR
  Blocking of 125I-VEGF binding to KDR: blocks VEGF from binding to KDR in a concentration dependent manner
[4]
  Predominant Reactivity: VEGF
NCI-H358 NSCLC tumors; 100 μg i.p., initial treatment 500 μg i.v.
  Mean tumor weight at end of study (day 116): 0.054 g
NCI-H358 NSCLC tumors; 100 μg, start 480 mm^3 (2C3), 428 mm^3 (3E7)
  Mean tumor volume after approximately 14 wk of treatment: 84 mm^3
NCI-H358 NSCLC tumors; 50-100 μg i.p. every 3-5 days, approximately 10 weeks
  Mean tumor volume at the end of the study as % of initial mean tumor volume: 30%
NCI-H358 NSCLC tumors; approximately 14 wk of treatment, 100 μg
  Decrease in mean tumor volume: approximately 80%
NCI-H358 NSCLC tumors; mouse, in vivo
  Regression of established NCI-H358 tumors: caused significant tumor regressions; also recorded: slow regression of the tumors
A673 rhabdomyosarcoma; [10]
  Final tumor volume: approximately 150 mm^3
A673 rhabdomyosarcoma; 10 or 1 μg twice per wk
  Effect on growth of A673 tumors, lower doses: did slow the growth of A673 tumors
[5]
  Reactivity with VEGF on western blot: react with denatured VEGF121 and VEGF165 under reducing and non-reducing conditions
VEGFR2
  Blocking of VEGF-induced phosphorylation of VEGFR2: block VEGF-induced phosphorylation of VEGFR2 in PAE/KDR cells
Mouse VEGF
  Reactivity with mouse VEGF: all the antibodies except 2C3 react with mouse VEGF
[6]; 100 fold molar excess over VEGF
  Reduction in VEGF binding to VEGFR2: about 74%
[6]; 1000-fold molar excess over VEGF
  VEGF bound to VEGFR2-coated wells, % of amount bound in absence of antibody: ~19%
[6]; 1000 fold molar excess over VEGF
  Reduction in VEGF binding to VEGFR2: about 81%
[6]; summary table
  Blocks VEGF from binding to VEGFR2: Yes
[7]
  Blocks VEGF-induced proliferation: Yes
NCI-H358 NSCLC; 10 μg twice per wk
  Tumor growth retardation in NCI-H358 tumor model, lower dose: less marked
NCI-H358 NSCLC; [10]
  Final tumor volume: approximately 150 mm^3

## NC(=O)c1nnn(Cc2cc(Cl)c(C(=O)c3ccc(Cl)cc3)c(Cl)c2)c1N [CAI, carboxyamidotriazole]
[8]
  Disease stabilization, share of cancer patients having progressive disease before treatment: 49%

## recombinant, humanized form of Genentech's anti-VEGF antibody: recombinant, humanized form of Genentech's anti-VEGF antibody evaluated in monkeys (Ryan et al., 1999)
[9]
  Preclinical safety finding in monkeys: physeal dysplasia
